Among the test systems are RXF-631 renal; XF 498 CNS; NCI/ADR-RES ovarian; MCF7 breast; SN12K1 renal; P388 leukemia; 786-0 renal; P388/ADR leukemia.
What all share (test): NCI tumour cell line growth inhibition, 48 h

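Interpolation was linear, between the two tested concentrations surrounding the appropriate level; five concentrations were tested over 48 hours in 96-well plates. Here, GI50 denotes the concentration required for 50% inhibition of growth. At the TGI there is no net growth.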

For the molecule `Cc1ccc(CCC(=O)C(=O)O)s1`, the TGI in the test on RXF-631 renal and in the test on XF 498 CNS was > 100 µM in each case.
As for `CCCCNC(=O)/N=C/c1c(O)c2ccccc2oc1=O`, the TGI with XF 498 CNS was 65.1 µM.
For the molecule `COc1ccc(Sc2ccccc2N)cc1`, the TGI with XF 498 CNS amounted to 40 µM.
With `COC(=O)C(NC(=O)c1ccccc1)C(c1ccc(Cl)cc1)P(=O)(OC)OC` (stereo unspecified), the TGI in the test with XF 498 CNS was > 100 µM.
For `NCCCNCCCCN1CC1`, the values for the TGI in the test with NCI/ADR-RES ovarian and in the test on MCF7 breast were > 20.7 µM and > 100 µM, respectively.
With `COc1ccc(N2NC(c3ccccc3)(c3ccccc3)C(C)C2=O)cc1` (stereo unspecified), the TGI in the test with NCI/ADR-RES ovarian and in the test with MCF7 breast was > 100 µM each time.
Turning to `COc1ccc(-c2nn(-c3ccc(NC(=O)Nc4ccc(Cl)c(C(F)(F)F)c4)cc3)cc2-c2ccncc2)cc1Cl`, in the test on NCI/ADR-RES ovarian, the GI50 is 2.4 µM and the TGI is > 100 µM. In the test with MCF7 breast, the GI50 was 1.7 µM and the TGI stood at 4.54 µM.
As to `CN(C)/N=N/c1nc[nH]c1C(N)=O`, the TGI with XF 498 CNS is 84.5 µM; in the test with SN12K1 renal, 92.6 µM; in the test on P388 leukemia, > 98.3 µM; with 786-0 renal, > 1000 µM; with P388/ADR leukemia, > 96.5 µM; with MCF7 breast it was > 1000 µM. Also, the values for the GI50 with NCI/ADR-RES ovarian and in the test on MCF7 breast were 232 µM and 154 µM, respectively.

Values taken from PubChem BioAssay (NCI).
